Three molecules from PMC6033896, “Discovery of Mcl-1 inhibitors from integrated high throughput and virtual screening” (Scientific Reports, 2018) can be followed below.

For experiment [1], the target named is T1, 15N-labeled Mcl-1 (Homo sapiens, UniProt Q07820).
T1 construct: human Mcl-1 (residues 171–323); made in house; host or cells: E. coli (bacteria grown on M9 minimal medium with 15N ammonium sulphate)
Description: 1H,15N HSQC NMR chemical shift perturbation. Particulars: direct binding to Mcl-1. As to the method:
NMR studies were performed as previously described. In brief, the ^15N-labeled Mcl-1 protein was prepared and purified using the same protocol as for unlabelled protein with the exception that the bacteria were grown on M9 minimal media supported with 1 g/L of (^15NH4)2SO4. Protein samples were prepared in a 20 mM sodium phosphate, 150 mM NaCl and 1 mM DTT solution at pH 7 in 7% D2O. The binding mode of compounds has been characterized with a solution of uniformly ^15N-labeled Mcl-1 (75 μM) in the absence and presence of added compounds (in 1 or 6% final DMSO) with the indicated molar ratio concentrations. The total volume of each sample was 150 μL and samples were prepared in Bruker tubes (Bruker, # Z117724). All Spectra were acquired at 30 °C on a Bruker 600 MHz NMR spectrometer equipped with a cryogenic probe, processed using Bruker TopSpin and rNMR, and were analysed with Sparky. Plots of chemical shift changes were calculated as ((Δ^1H ppm)2 + (0.2(Δ^15N ppm))2)0.5 of Mcl-1 amide upon addition of compound. The absence of a bar in a chemical shift plot indicates no chemical shift difference or the presence of a proline or residue that is overlapped or not assigned. The cutoff threshold for determining the significance of the chemical shift was based on one standard deviation above the average of all chemical shifts.

In experiment [2] the target is T2, Mcl-1 protein (Homo sapiens, UniProt Q07820).
T2 construct: human Mcl-1 (residues 171–323); His tag (pHis-TEV vector) (N, cleaved yes); made in house; host or cells: E. coli BL21 (DE3)
Description: TR-FRET binding assay with Bid-Dy647 peptide. Particulars: 10 nM Mcl-1, 10 nM Bid-Dy647. On the procedure: TR-FRET was performed using black 384-well plates in an Envision Multilabel plate reader (Perkin Elmer Life Sciences). To each well, a mixture of 10 nM Bid-Dy647 peptide (79–99), 10 nM Mcl-1 protein, and Europium-anti-His antibody were added to a final volume of 25 μl in the assay buffer (20 mM potassium phosphate, pH 7.5; 50 mM NaCl, 1 mM EDTA and 0.05% Pluronic F68). The TR-FRET signals were measured with an Envision Multilabel plate reader after 2 h of incubation. (Ex 340 nm, Em615 nm and Em665 nm) and expressed as FRET signal ratio (F665 nm/[…] * 104)
(In general: Time-resolved FRET reads energy transfer from a long-lived donor to a nearby acceptor.)

Experiment [3] deals with T2, Mcl-1 protein. Description: SPR-based solution competitive binding assay, immobilized biotin-labelled Bim BH3 peptide. Particulars: Mcl-1 20 nM; competition with immobilized Bim BH3 peptide. As to the method: The solution competitive SPR-based assay was performed on Biacore 2000 in a similar way as was already reported. Briefly, N terminal biotin-labelled Bim BH3 peptide (141–166 amino acids) was immobilized on streptavidin (SA) chip giving a density of 800 RU (Response Units). The pre-incubated Mcl-1 protein (20 nM) with tested small-molecule inhibitors for at least 30 min was injected over the surfaces of the chip using assay buffer HBS-P (GE, #BR100368). Response units were measured at 15 s in the dissociation phase, and IC50 values were determined by nonlinear least-squares analysis using GraphPad Prism 6.0 software.

Experiment [4] deals with Bax/Bak double knockout (DKO) MEFs. Description: MEF cell death, propidium iodide flow cytometry. It is filed as cell-based, mouse. As to the method: (§1) MEF cells, including wild-type, Bax/Bak double knockout, Bax−/− single knockout, and Bak−/− single knockout were tested and characterized (Supplementary Fig. S3). The cells were cultured in DMEM (Life Technologies), supplemented with 10% fetal bovine serum (FBS) (Thermo Scientific HyClone) and 1% Penicillin/streptomycin solution (Life Technologies). The retrovirally transduced lymphoma cells isolated from Eμ-myc transgenic mice were provided by Ricky W. Johnstone at the University of Melbourne, Melbourne, Australia and cultured as previously described[37],[65].
(§2) MEFs were seeded in 24-well plates at 0.5 × 10^5 cells/well, left to adhere for 5 hours and then treated for 15 hours with increasing concentrations of the compounds. The cells were harvested, washed with phosphate-buffered saline (PBS) and stained with 0.025 mg/ml propidium iodide (MP Biomedicals). The percentage of the propidium iodide positive population was determined by flow cytometry and calculated using WinList 3.0.
A general note: Flow cytometry measures light scatter and fluorescence of single cells or particles in a stream.

Experiment [5] concerns wild-type MEFs. Put plainly: MEF cell death, propidium iodide flow cytometry. The format is cell-based, mouse. As to the method:
as §1, §2

The target in experiment [6] is T3, endogenous Mcl-1 (Homo sapiens, UniProt Q07820).
T3 construct: endogenous in cells; host or cells: 2LMP (subclone of MDA-MB-231), whole cell lysate
Put plainly: Biotin-streptavidin pulldown with BL-Noxa, 2LMP whole cell lysate. The format is binding. On the procedure: 2LMP cells, a subclone of MDA-MB-231, were harvested (~15 × 10^6) and lysed via sonication with CHAPS buffer (10 mM HEPES pH 7.4, 2.5 mM EDTA, 150 mM NaCl, 1% (w/v) CHAPS, pH 7.4). […] Protein-peptide complexes were pulled down with agarose beads for 2 hrs. Beads were washed with CHAPS buffer and Mcl-1 protein was eluted by boiling in SDS-PAGE loading dye. Samples were analysed by western blotting with the Mcl-1 antibody (Thermo Scientific #MS-681-P1).

Experiment [7] relates to Eµ-myc lymphoma cells overexpressing Bcl-xL. Description: Eµ-myc lymphoma cell viability, flow cytometry. The format is cell-based, mice. The settings on record: increasing concentrations, 15 h. On the procedure:
as §1
(§3) The Mcl-1, Bcl-2, and Bcl-xL retroviral transduced lymphoma Eμ-myc cells were seeded in 12-well plates at 0.5 × 10^6 cells/well. […] The cells were harvested and stained with violet LIVE/DEAD Fixable Dead Cell Stain Kit (Invitrogen) according to manufacturer’s protocol. The percentage of fluorescent positive cells was determined by flow cytometry and calculated using WinList 3.0.

The test system of experiment [8] is Eµ-myc lymphoma cells overexpressing Bcl-2. Description: Eµ-myc lymphoma cell viability, flow cytometry. It is filed as cell-based, mice. The settings on record: increasing concentrations. As to the method: as §1, §3
In experiment [9] the test system is Eµ-myc lymphoma cells overexpressing Mcl-1. Put plainly: Eµ-myc lymphoma cell viability, flow cytometry. It is filed as cell-based, mice. Particulars: increasing concentrations, 15 h. As to the method: as §1, §3
The test system of experiment [10] is Bax−/− single knockout MEFs. Put plainly: MEF cell death, propidium iodide flow cytometry. Particulars: increasing concentrations, 15 h. The format is cell-based, mouse. As to the method:
as §1, §2

The subject of experiment [11] is Bak−/− single knockout MEFs. Description: MEF cell death, propidium iodide flow cytometry. Particulars: increasing concentrations, 15 h. It is filed as cell-based, mouse. As to the method: as §1, §2
Where [12] appears, read: 100 µM of hits (15: 10, 20, 30 µM), 15-hour treatment, propidium iodide.
The mark [13] stands for this setting: increasing concentrations, 15 h.

Several values for one entry are separate records, joined by “and”; a condition that tells them apart may be missing. Identical values can stand only once. Entries after “also recorded” stand apart in the source; their conditions may differ.

T2 sequence (Q07820 171-323): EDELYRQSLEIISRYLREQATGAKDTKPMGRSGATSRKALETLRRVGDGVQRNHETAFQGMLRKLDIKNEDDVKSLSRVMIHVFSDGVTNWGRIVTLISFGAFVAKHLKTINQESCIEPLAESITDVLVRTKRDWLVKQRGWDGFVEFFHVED
T3 sequence (Q07820 whole entry): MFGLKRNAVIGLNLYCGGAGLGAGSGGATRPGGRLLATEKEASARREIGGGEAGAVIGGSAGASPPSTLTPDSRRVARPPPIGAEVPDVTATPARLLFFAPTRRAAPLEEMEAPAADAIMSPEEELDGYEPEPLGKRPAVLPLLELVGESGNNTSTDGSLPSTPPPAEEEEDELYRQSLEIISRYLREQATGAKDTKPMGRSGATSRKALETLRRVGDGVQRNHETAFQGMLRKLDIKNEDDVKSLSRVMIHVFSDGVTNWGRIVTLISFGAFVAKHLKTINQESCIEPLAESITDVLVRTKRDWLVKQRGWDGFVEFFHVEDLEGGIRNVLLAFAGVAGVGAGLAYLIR
T1 sequence (Q07820 171-323): as the sequence (Q07820 171-323) above

Broadly, the IC50 is the point on the concentration scale where inhibition reaches its midpoint. Turning to `O=C(CSc1nnc(-c2ccco2)c(-c2ccco2)n1)Nc1ccccc1` [Compound 19], the “chemical shift perturbations of Mcl-1 amides (HSQC NMR)” value in experiment [1] is “concentration-dependent perturbations”. In addition, the IC50 is 11.9 ± 3.7 µM in experiment [2]; 13 µM and 13.4 µM in [3]. Moreover, in [4] (setting [12]), the “cell death induction in Bax/Bak DKO MEFs, screening of hits” value is recorded as “without significant cell death induction”. In experiment [5] (setting [12]), the “cell death induction in wild-type MEFs, screening of hits” value is “inducing cell death”.

`O=C(CSc1nnc(-c2ccco2)c(-c2ccco2)n1)Nc1cccc(C(F)(F)F)c1` [Compound 39]: the “disruption of BL-Noxa binding to endogenous Mcl-1” value in experiment [6] is “dose-dependent blocking”. Further, the IC50 turned out to be 7.1 ± 2.8 µM in experiment [2] and 6.3 ± 0.6 µM in experiment [3]. For the same molecule, the “effect on Eµ-myc cells overexpressing Bcl-xL” value in experiment [7] is listed as “minimal effect”. The “effect on Eµ-myc cells overexpressing Bcl-2” value in [8] is “selectivity; also recorded: minimal effect”. The “killing of Eµ-myc cells overexpressing Mcl-1” value in experiment [9] is on record as “selective killing; also recorded: selectively kills Mcl-1 dependent cell lines”. Further, the “cell death in Bax/Bak DKO MEFs” value in [4] (setting [13]) is “rescued the cells”. Further, the “cell death in Bax−/− MEFs” value in [10] is given as “rescued the cells”. Besides, in experiment [5] (setting [13]), the “cell death in wild-type MEFs” value was “induces Bax/Bak-dependent cell death; also recorded: dose-dependent increase in cell death”. The “cell death in Bak−/− MEFs” value in experiment [11] is recorded as “rescued the cells”.

As to `c1ccc(CCCCSc2nnc(-c3ccco3)c(-c3ccco3)n2)cc1` [Compound 44], in [6], the “disruption of BL-Noxa binding to endogenous Mcl-1” value is reported as “dose-dependent blocking”. This molecule also showed an IC50 in [2] of 2.5 ± 0.1 µM. In [8], the “effect on Eµ-myc cells overexpressing Bcl-2” value is listed as “selectivity”. Also, the “killing of Eµ-myc cells overexpressing Mcl-1” value in experiment [9] is given as “killing”.
